The molecules below were run against nuclear factor-kappa B (NF-kB)-inducing kinase (NIK) (Homo sapiens (Human), UniProt Q99558) (assay: NIK enzyme inhibition assay (Transcreener ADP, NIK ADP-FP)). Settings: purified NIK 0.5 nM, 10 μM ATP, fluorescence polarization; read-out: NIK ADP-FP (Ki μM).
Assay type: biochemical

nuclear factor-kappa B (NF-kB)-inducing kinase (NIK), sequence (Q99558 whole entry): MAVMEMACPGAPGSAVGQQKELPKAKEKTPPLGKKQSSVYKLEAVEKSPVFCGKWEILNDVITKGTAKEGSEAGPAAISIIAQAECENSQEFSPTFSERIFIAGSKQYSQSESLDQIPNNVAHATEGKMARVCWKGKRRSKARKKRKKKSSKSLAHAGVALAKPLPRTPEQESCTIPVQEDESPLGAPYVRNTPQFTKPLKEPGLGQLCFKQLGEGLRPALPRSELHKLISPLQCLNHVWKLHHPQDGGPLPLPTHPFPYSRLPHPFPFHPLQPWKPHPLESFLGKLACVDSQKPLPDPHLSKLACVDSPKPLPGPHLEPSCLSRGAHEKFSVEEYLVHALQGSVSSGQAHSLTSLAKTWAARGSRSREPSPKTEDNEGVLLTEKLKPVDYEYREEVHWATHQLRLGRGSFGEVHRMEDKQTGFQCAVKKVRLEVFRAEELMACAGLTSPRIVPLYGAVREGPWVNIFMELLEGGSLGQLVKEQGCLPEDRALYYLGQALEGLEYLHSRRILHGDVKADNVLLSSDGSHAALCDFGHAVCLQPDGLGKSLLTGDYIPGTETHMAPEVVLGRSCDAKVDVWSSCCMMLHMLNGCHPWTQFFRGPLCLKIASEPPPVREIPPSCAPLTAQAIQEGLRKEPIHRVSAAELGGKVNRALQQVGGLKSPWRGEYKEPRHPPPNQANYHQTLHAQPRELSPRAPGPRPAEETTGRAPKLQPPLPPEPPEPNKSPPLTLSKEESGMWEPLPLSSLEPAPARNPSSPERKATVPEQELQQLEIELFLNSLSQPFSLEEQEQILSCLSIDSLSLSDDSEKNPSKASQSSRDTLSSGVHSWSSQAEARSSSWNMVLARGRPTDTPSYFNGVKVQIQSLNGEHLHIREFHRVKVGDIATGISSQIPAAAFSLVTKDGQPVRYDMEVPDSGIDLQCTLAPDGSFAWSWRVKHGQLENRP

SMILES | Ki [nM]
C[C@H]1Cc2c(C(N)=O)nn(-c3cccc(C#C[C@]4(O)CCN(C)C4=O)c3)c2C1 [Compound 193, (5S)-1-[3-[2-[(3R)-3-hydroxy-1-methyl-2-oxo-pyrrolidin-3-yl]ethynyl]phenyl]-5-methyl-5,6-dihydro-4H-cyclopenta[c]pyrazole-3-carboxamide] | 0.1
CN1CC[C@@](O)(C#Cc2ccnc(-n3nc(C(N)=O)c4c3CCC[C@H]4NC(=O)C3CC3)c2)C1=O [Compound 15, (4R)-4-(cyclopropanecarbo-nylamino)-1-[4-[2-[(3R)-3-hydroxy-1-methyl-2-oxo-pyrrolidin-3-yl]ethynyl]-2-pyridyl]-4,5,6,7-tetrahydroinda-zole-3-carboxamide] | 382
CN1CC[C@@](O)(C#Cc2cccc(-n3nc(C(N)=O)c4c3CCC[C@H]4n3cccn3)c2)C1=O [Compound 34, (4R)-1-[3-[2-[(3R)-3-hydroxy-1-methyl-2-oxo-pyrrolidin-3-yl]ethynyl]phenyl]-4-pyrazol-1-yl-4,5,6,7-tetrahydro-indazole-3-carboxamide] | 606
CN1CC[C@@](O)(C#Cc2cccc(-n3nc(C(N)=O)c4cc(CN5CCCC5)ccc43)c2)C1=O [Compound 48, 1-[3-[2-[(3R)-3-hydroxy-1-methyl-2-oxo-pyrrolidin-3-yl]ethynyl]phenyl]-5-(pyrro-lidine-1-ylmethyl)indazole-3-carboxamide] | 64.7
CN1CC[C@@](O)(C#Cc2cccc(-n3nc(C(N)=O)c4c3C[C@@]3(C)C(C4)C3(F)F)c2)C1=O (stereo partly drawn) [Compound 47, (5aS)-5,5-difluoro-1-[3-[2-[(3R)-3-hydroxy-1-methyl-2-oxo-pyrrolidin-3-yl]ethyn-yl]phenyl]-5a-methyl-4a,6-dihydro-4H-cyclopropa[f] indazole-3-carboxamide] | 22.6
NC(=O)c1nn(-c2cccc(C#C[C@@]3(O)CCOC3=O)c2)c2ccccc12 [Compound 172, 1-[3-[2-[(3)S-3-hydroxy-2-oxo-tetrahydrofuran-3-yl]eth-ynyl]phenyl]indazole-3-carbox-amide] | 473
NC(=O)c1nn(-c2cccc(C#C[C@]3(O)CCCC3=O)c2)c2ccccc12 [Compound 116, 1-[3-[2-[(1R)-1-hydroxy-2-oxo-cyclopentyl]ethynyl]phe-nyl]indazole-3-carboxamide] | 0.63
CN1CC[C@@](O)(C#Cc2cccc(-n3nc(C(N)=O)c4c3NCCC4)c2)C1=O [Compound 198, 1-[3-[2-[(3R)-3-hydroxy-1-methyl-2-oxo-pyrrolidin-3-yl]ethynyl]phenyl]-4,5,6,7-tetrahydropyrazolo[3,4-b]pyridine-3-carboxamide] | 0.29
CC(=O)N1CC(c2cnc3c(c2)c(C(N)=O)nn3-c2cccc(C#C[C@]3(O)CCN(C)C3=O)c2)C1 [Compound 107, 5-(1-acetylazetidin-3-yl)-1-[3-[2-[(3R)-3-hydroxy-1-meth-yl-2-oxo-pyrrolidin-3-yl]ethynyl]phenyl]pyrazolo[3,4-b]pyridine-3-carboxamide] | 1.82
CN1CC[C@@](O)(C#Cc2ccnc(-n3nc(C(N)=O)c4c3CC(C)(C)[C@@H](OCc3ccccc3)C4)c2)C1=O [Compound 7, (5S)-5-benzyloxy-1-[4-[2-[(3R)-3-hydroxy-1-methyl-2-oxo-pyrrolidin-3-yl]ethynyl]-2-pyridyl]-6,6-dimethyl-5,7-dihydro-4H-indazole-3-carboxamide] | 45.5
CN1CC[C@@](O)(C#Cc2cccc(-c3nc(C(N)=O)c4n3CCC4)c2)C1=O [Compound 192, 3-[3-[2-[(3R)-3-hydroxy-1-methyl-2-oxo-pyrrolidin-3-yl]ethynyl]phenyl]-6,7-dihydro-5H-pyrrolo[1,2-c] imidazole-1-carboxamide] | 28.1
CN1CC[C@@](O)(C#Cc2cccc(-n3nc(C(N)=O)c4c3CCN(C3COC3)C4)c2)C1=O [Compound 33, 1-[3-[2-[(3R)-3-hydroxy-1-methyl-2-oxo-pyrrolidin-3-yl]ethynyl]phenyl]-5-(oxetan-3-yl)-6,7-dihydro-4H-pyra-zolo[4,3-c]pyridine-3-carbox-amide] | 259
CN1CC[C@](O)(C#Cc2cccc(-n3nc(C(N)=O)c4c3C(=O)NC4)c2)C1=O [Compound 143, 1-[3-[2-[(3S)-3-hydroxy-1-methyl-2-oxo-pyrrolidin-3-yl]ethynyl]phenyl]-6-oxo-4,5-dihydropyrrolo[3,4-c]pyra-zole-3-carboxamide] | 1.54
C[C@H](O)c1ccc2c(c1)c(C(N)=O)nn2-c1cccc(C#C[C@]2(O)CCN(C)C2=O)c1 [Compound 45, 5-[(1S)-1-hydroxyethyl]-1-[3-[2-[(3R)-3-hydroxy-1-meth-yl-2-oxo-pyrrolidin-3-yl]ethynyl]phenyl]indazole-3-carboxamide] | 2.33
N#Cc1cc2c(cn1)c(C(N)=O)nn2-c1cccc(C#C[C@]2(O)CCc3cccnc32)c1 [Compound 134, 6-cyano-1-[3-[2-[(7R)-7-hy-droxy-5,6-dihydrocyclopen-ta[b]pyridin-7-yl]ethynyl]phe-nyl]pyrazolo[4,3-c]pyridine-3-carboxamide] | 1250
C[C@@](O)(C#Cc1cccc(-n2nc(C(N)=O)c3ccccc32)c1)c1ncccn1 [Compound 28, 1-[3-[(3R)-3-hydroxy-3-pyri-midin-2-yl-but-1-ynyl]phe-nyl]indazole-3-carboxamide] | 35.2
CN1CC[C@@](O)(C#Cc2ccnc(-n3nc(C(N)=O)c4c3CC(C)(C)[C@H](OCc3ccccc3)C4)c2)C1=O [Compound 8, (5R)-5-benzyloxy-1-[4-[2-[(3R)-3-hydroxy-1-methyl-2-oxo-pyrrolidin-3-yl]ethynyl]-2-pyridyl]-6,6-dimethyl-5,7-dihydro-4H-indazole-3-carboxamide] | 72.4
Cc1cn(-c2ccc3c(c2)c(C(N)=O)nn3-c2cccc(C#C[C@]3(O)CCN(C)C3=O)c2)cn1 [Compound 106, 1-[3-[2-[(3R)-3-hydroxy-1-methyl-2-oxo-pyrrolidin-3-yl]ethynyl]phenyl]-5-(4-meth-ylimidazol-1-yl)indazole-3-carboxamide] | 0.05
CN1CC[C@@](O)(C#Cc2cccc(-n3nc(C(N)=O)c4cccc(F)c43)c2)C1=O [Compound 176, 7-fluoro-1-[3-[2-[(3R)-3-hydroxy-1-methyl-2-oxo-pyrrolidin-3-yl]ethynyl]phenyl] indazole-3-carboxamide] | 1.27
CN(C)C(=O)c1ccc2c(c1)c(C(N)=O)nn2-c1cccc(C#C[C@]2(O)CCN(C)C2=O)c1 [Compound 184, 1-[3-[2-[(3R)-3-hydroxy-1-methyl-2-oxo-pyrrolidin-3-yl]ethynyl]phenyl]-N5, N5-dimethyl-indazole-3,5-dicarboxamide] | 103
CN1CC[C@@](O)(C#Cc2cccc(-n3nc(C(N)=O)c4c3CCN([S@@+](C)[O-])C4)c2)C1=O [Compound 123, 1-[3-[2-[(3R)-3-hydroxy-1-methyl-2-oxo-pyrrolidin-3-yl]ethynyl]phenyl]-5-[(R)-methylsulfinyl]-6,7-dihydro-4H-pyrazolo[4,3-c]pyridine-3-carboxamide] | 18
CNC(=O)c1ccc2c(c1)c(C(N)=O)nn2-c1cccc(C#C[C@]2(O)CCN(C)C2=O)c1 [Compound 112, 1-[3-[2-[(3R)-3-hydroxy-1-methyl-2-oxo-pyrrolidin-3-yl]ethynyl]phenyl]-N5-meth-yl-indazole-3,5-dicarbox-amide] | 0.08
